What was measured:
[1] = test system: activated human C1; assay: Test, Code 026 (C1 inhibitor); type: biochemical; conditions: serial two-fold dilution assay; higher well number indicates higher activity
From the text: (§1) An active inhibitor protects C2 from C1 and C4; (ii) Test, Code 035 (C3-C9 inhibitor) -- This test determines the ability of the late components of human complement (C3-C9) to lyse EAC 142 in the presence of appropriate dilutions of the test compound. An active inhibitor protects EAC 142 from lysis by human C3-C9; (iii) Test, Code 036 (C-Shunt inhibitor) -- In this test human erythrocytes rendered fragile are lysed in autologous serum via the shunt pathway activated by cobra venom factor in the presence of appropriate dilutions of the test compound. Inhibition of the shunt pathway results in failure of lysis; (iv) Forssman Vasculitis Test -- Here, the well known complement dependent lesion, Forssman vasculitis, is produced in guinea pigs by intradermal injection of rabbit anti-Forssman antiserum. […]

[2] = test system: late components of human complement (C3-C9); assay: Test, Code 035 (C3-C9 inhibitor); type: biochemical; set-up: key: N=Negative; conditions: serial two-fold dilution assay; lysis of EAC 142 by human C3-C9
From the text: as §1

[3] = test system: shunt pathway activated by cobra venom factor; assay: Test, Code 036 (C-Shunt inhibitor); type: cell-based; conditions: serial two-fold dilution assay; fragile human erythrocytes in autologous serum
From the text: as §1

Compound: O=C([O-])c1cc(NC(=O)c2cc(C(=O)Nc3cc(C(=O)[O-])cc(C(=O)[O-])c3)c(C(=O)Nc3cc(C(=O)[O-])cc(C(=O)[O-])c3)cc2C(=O)Nc2cc(C(=O)[O-])cc(C(=O)[O-])c2)cc(C(=O)[O-])c1.[Na+].[Na+].[Na+].[Na+].[Na+].[Na+].[Na+].[Na+] [5,5',5",5'"-[1,2,4,5-Benzenetetrayltetrakis(carbonylimino)]-tetraisophthalic acid octasodium salt]
- Cl 026 Wells [1]: +7 Wells
- C-Late 035 Wells [2]: N
- Shunt Inhibition 036 Wells [3]: +3 Wells

From patent US4118585A, “Anionic benzene tetrakis carbonylimino isophthalic acid salts” (priority 1977, dated 1978)
